Target: T1, glucocorticoid receptor (GR) (Homo sapiens, UniProt P04150)
T1 sequence (P04150 521-777): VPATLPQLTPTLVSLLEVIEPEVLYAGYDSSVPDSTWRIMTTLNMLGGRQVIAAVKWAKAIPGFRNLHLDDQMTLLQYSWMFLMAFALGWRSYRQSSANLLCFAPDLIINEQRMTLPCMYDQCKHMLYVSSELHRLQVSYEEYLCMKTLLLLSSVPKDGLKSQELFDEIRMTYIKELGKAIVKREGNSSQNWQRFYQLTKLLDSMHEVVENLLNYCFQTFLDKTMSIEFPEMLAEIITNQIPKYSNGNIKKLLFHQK
Test: Assay for agonist activity on glucocorticoid receptor (luciferase reporter, HEK293 cells transfected with pBIND-GR plasmid)
Format: cell-based
Conditions: HEK293 cells transfected with pBIND-GR, luciferase signal; read-out: GR agonist EC50
Method: Pharmacological Example 1: Assay for Agonist Activity on Glucocorticoid Receptor (GR)
The test compounds were subjected to a 4-fold serial dilution starting from an initial concentration of 10 µ M, generating a 10-point concentration gradient with duplicate wells for each concentration. The blank control consisted of 0.1 % DMSO.
The HEK293 stable cell line […] transfected with glucocorticoid receptor (GR) (ICE Bioscience, Lot No. TYP-20220519) was cultured in Dulbecco's Modified Eagle Medium (DMEM) supplemented with 10% fetal bovine serum (FBS) and 200 µ g/ml Hygromycin B in a cell incubator containing 5% CO2 at 37 °C. The spent medium was aspirated and the cells were washed once with phosphate-buffered saline (PBS). Then, 1 mL of TrypLE™ Express solution was added, and the cells were incubated at 37 °C for approximately 2 min. When the cells detached from the bottom of the cell culture dish, approximately 5 mL of pre-warmed complete medium at 37 °C was added. The cell suspension was gently pipetted with a pipette to dissociate clumped cells. The cell suspension was transferred to a sterile centrifuge tube and centrifuged at 1000 rpm for 5 min to pellet the cells for experiments or subculture.
HEK293 cells were digested and seeded into 6-cm culture dishes. The pBIND-GR plasmid was transfected into the HEK293 cells using a transfection reagent, resulting in HEK293 cells successfully transfected with the pBIND-GR plasmid. The cells were resuspended in phenol red-free DMEM medium containing 5% charcoal-stripped serum, counted, and then seeded into 96-well plates. The test compounds were added, and the plates were then incubated in an incubator. The luminescence signal values were measured using a multimode microplate reader following the instructions of the luciferase assay kit. The EC50 values of each test compound were calculated using the nonlinear fitting formula with GraphPad Prism 8.0 software.

SMILES	EC50 [nM]
C[C@]12C=CC(=O)C=C1CC[C@H]1[C@@H]3C[C@H]4OC(c5ccc(COC6COC(=O)C6)cc5)O[C@@]4(C(=O)CO)[C@@]3(C)C[C@H](O)[C@@]12Cl (stereo partly drawn) [Compound 25, (6aS,6bR,7S,8aS,8bS,11aR,12aS,12bS)-6b-Chloro-7-hydroxy-8b-(2-hydroxyacetyl)-6a,8a-dimethyl-10-(4-(((5-oxotetrahydrofuran-3-yl)oxy)methyl)phenyl)-1,2,6a,6b,7,8,8a,8b,11a,12,12a,12b-do decahydro-4H-naphtho[2',1':4,5]indeno[1,2-d][1,3]dioxol-4-one]	1.3
C[C@]12C=CC(=O)C=C1CC[C@H]1[C@@H]3C[C@H]4OC(C5CCN(CC6CCOC6=O)CC5)O[C@@]4(C(=O)CO)[C@@]3(C)C[C@H](O)[C@@]12F (stereo partly drawn) [Compound 44, (6aS,6bR,7S,8aS,8bS,11aR,12aS,12bS)-6b-Fluoro-7-hydroxy-8b-(2-hydroxyacetyl)-6a,8a-dimethyl-10-(1-((2-oxotetrahydrofuran-3-yl)methyl)piperidin-4-yl)-1,2,6a,6b,7,8,8a,8b,11a,12,12a,12b-d odecahydro-4H-naphtho[2',1':4,5]indeno[1,2-d][1,3]dioxol-4-one]	15.1
C[C@]12C=CC(=O)C=C1CC[C@@H]1[C@@H]2[C@@H](O)C[C@@]2(C)[C@H]1C[C@H]1OC(c3ccc(COC4CCOC4=O)cc3)O[C@]12C(=O)CO (stereo partly drawn) [Compound 28, (6aR,6bS, 7S,8aS,8bS,11aR,12aS,12bS)-7-Hydroxy-8b-(2-hydroxyacetyl)-6a,8a-dimethyl-10-(4-(( (2-oxotetrahydrofuran-3-yl)oxy)methyl)phenyl)-1,2,6a,6b,7,8,8a,8b,11a,12,12a,12b-dodecahydro-4H-naphtho[2',1':4,5]indeno[1,2-d][1,3]dioxol-4-one]	4.24
C[C@]12C=CC(=O)C=C1[C@@H](F)C[C@H]1[C@@H]3C[C@H]4OC(c5ccc(CSC6CCOC6=O)cn5)O[C@@]4(C(=O)CO)[C@@]3(C)C[C@H](O)[C@@]12F (stereo partly drawn) [Compound 49, (2S,6aS,6bR,7S,8aS,8bS,11aR,12aS,12bS)-2,6b-Difluoro-7-hydroxy-8b-(2-hydroxyacetyl)-6a,8a-dimethyl-10-(5-(((2-oxotetrahydrofuran-3-yl)thio)methyl)pyridin-2-yl)-1,2,6a,6b,7,8,8a,8b,11a,12, 12a,12b-dodecahydro-4H-naphtho[2',1':4,5]indeno[1,2-d][1,3]dioxol-4-one]	1.12
C[C@]12C=CC(=O)C=C1CC[C@H]1[C@@H]3C[C@H]4OC(c5ccc(CS(=O)(=O)C6CCOC6=O)cc5)O[C@@]4(C(=O)CO)[C@@]3(C)C[C@H](O)[C@@]12Cl (stereo partly drawn) [Compound 60, (6aS,6bR,7S,8aS,8bS,11aR,12aS,12bS)-6b-Chloro-7-hydroxy-8b-(2-hydroxyacetyl)-6a,8a-dimethyl-10-(4-(((2-oxotetrahydrofuran-3-yl)sulfonyl)methyl)phenyl)-1,2,6a,6b,7,8,8a,8b,11a,12,12a,12b-dodecahydro-4H-naphtho[2',1':4,5]indeno[1,2-d][1,3]dioxol-4-one]	3.5
C[C@]12C=CC(=O)C=C1[C@@H](F)C[C@H]1[C@@H]3C[C@H]4OC(C5CCC(NC(=O)C6COC(=O)C6)CC5)O[C@@]4(C(=O)SCF)[C@@]3(C)C[C@H](O)[C@@]12F (stereo partly drawn) [Compound 6, S-(Fluoromethyl) (2S,6aS,6bR,7S,8aS,8bS,11aR,12aS,12bS)-2,6b-difluoro-7-hydroxy-6a,8a-dimethyl-4-oxo-10-(4-(5-oxotetrahydrofuran-3-carboxamido)cyclohexyl)-1,2,4,6a,6b,7,8,8a,11a,12,12a,12b-dodecahydro-8bH-naphtho[2',1':4,5]indeno[1,2-d][1,3]dioxole-8b-carbothioate]	8.69
C[C@]12C=CC(=O)C=C1CC[C@@H]1[C@@H]2[C@@H](O)C[C@@]2(C)[C@H]1C[C@H]1OC(c3ccc(CSC4COC(=O)C4)cc3C#N)O[C@]12C(=O)CO (stereo partly drawn) [Compound 32, 2-((6aR,6bS,7S,8aS,8bS,11aR,12aS,12bS)-7-Hydroxy-8b-(2-hydroxyacetyl)-6a,8a-dimethyl-4-oxo-2,4,6a,6b,7,8,8a,8b,11a,12,12a,12b-dodecahydro-1H-naphtho[2',1':4,5]indeno[1,2-d][1,3]dioxol-10-yl)-5-(((5-oxotetrahydrofuran-3-yl)thio)methyl)benzonitrile]	3.67
C[C@]12C=CC(=O)C=C1CC[C@H]1[C@@H]3C[C@H]4OC(c5ccc(CC6CCOC6=O)cc5)O[C@@]4(C(=O)CO)[C@@]3(C)C[C@H](O)[C@@]12F (stereo partly drawn) [Compound 43, (6aS,6bR,7S,8aS,8bS,11aR,12aS,12bS)-6b-Fluoro-7-hydroxy-8b-(2-hydroxyacetyl)-6a,8a-dimethyl-10-(4-((2-oxotetrahydrofuran-3-yl)methyl)phenyl)-1,2,6a,6b,7,8,8a,8b,11a,12,12a,12b-dodecah ydro-4H-naphtho[2',1':4,5]indeno[1,2-d][1,3]dioxol-4-one]	7.71
C[C@]12C=CC(=O)C=C1CC[C@H]1[C@@H]3C[C@H]4OC(c5ccc(OC6CCOC6=O)cc5)O[C@@]4(C(=O)CO)[C@@]3(C)C[C@H](O)[C@@]12F (stereo partly drawn) [Compound 40, (6aS,6bR,7S,8aS,8bS,11aR,12aS,12bS)-6b-Fluoro-7-hydroxy-8b-(2-hydroxyacetyl)-6a,8a-dimethyl-10-(4-((2-oxotetrahydrofuran-3-yl)oxy)phenyl)-1,2,6a,6b,7,8,8a,8b,11a,12,12a,12b-dodecahydr o-4H-naphtho[2',1':4,5]indeno[1,2-d][1,3]dioxol-4-one]	30.7
C[C@]12C=CC(=O)C=C1CC[C@@H]1[C@@H]2[C@@H](O)C[C@@]2(C)[C@H]1C[C@H]1OC(c3ccc(CNC4CCOC4=O)cc3)O[C@]12C(=O)CO (stereo partly drawn) [Compound 30, (6aR,6bS, 7S,8aS,8bS,11aR,12aS,12bS)-7-Hydroxy-8b-(2-hydroxyacetyl)-6a,8a-dimethyl-10-(4-(( (2-oxotetrahydrofuran-3-yl)amino)methyl)phenyl)-1,2,6a,6b,7,8,8a,8b,11a,12,12a,12b-dodecahydr o-4H-naphtho[2',1':4,5]indeno[1,2-d][1,3]dioxol-4-one]	7.2
C[C@]12C=CC(=O)C=C1[C@@H](F)C[C@H]1[C@@H]3C[C@H]4OC(c5ccc(CNC6COC(=O)C6)cc5F)O[C@@]4(C(=O)CO)[C@@]3(C)C[C@H](O)[C@@]12F (stereo partly drawn) [Compound 12, (2S,6aS,6bR,7S,8aS,8bS,11aR,12aS,12bS)-2,6b-Difluoro-10-(2-fluoro-4-(((5-oxotetrahydrofuran-3-yl)amino)methyl)phenyl)-7-hydroxy-8b-(2-hydroxyacetyl)-6a,8a-dimethyl-1,2,6a,6b,7,8,8a,8b,1 1a,12,12a,12b-dodecahydro-4H-naphtho[2',1':4,5]indeno[1,2-d][1,3]dioxol-4-one]	4.06
C[C@]12C=CC(=O)C=C1CC[C@H]1[C@@H]3C[C@H]4OC(c5ccc(CSC6CCOC6=O)cn5)O[C@@]4(C(=O)CO)[C@@]3(C)C[C@H](O)[C@@]12F (stereo partly drawn) [Compound 50, (6aS,6bR,7S,8aS,8bS,11aR,12aS,12bS)-6b-Fluoro-7-hydroxy-8b-(2-hydroxyacetyl)-6a,8a-dimethyl-10-(5-(((2-oxotetrahydrofuran-3-yl)thio)methyl)pyridin-2-yl)-1,2,6a,6b,7,8,8a,8b,11a,12,12a,12 b-dodecahydro-4H-naphtho[2',1':4,5]indeno[1,2-d][1,3]dioxol-4-one]	0.98
C[C@]12C=CC(=O)C=C1CC[C@H]1[C@@H]3C[C@H]4OC(c5ccc(C[S+]([O-])C6CCOC6=O)cc5)O[C@@]4(C(=O)CO)[C@@]3(C)C[C@H](O)[C@@]12F (stereo partly drawn) [Compound 56, (6aS,6bR,7S,8aS,8bS,11aR,12aS,12bS)-6b-Fluoro-7-hydroxy-8b-(2-hydroxyacetyl)-6a,8a-dimethyl-10-(4-(((2-oxotetrahydrofuran-3-yl)sulfinyl)methyl)phenyl)-1,2,6a,6b,7,8,8a,8b,11a,12,12a,12b-dodecahydro-4H-naphtho[2',1':4,5]indeno[1,2-d][1,3]dioxol-4-one]	1.56
C[C@]12C=CC(=O)C=C1[C@@H](F)C[C@H]1[C@@H]3C[C@H]4OC(c5cnc(CSC6CCOC6=O)nc5)O[C@@]4(C(=O)CO)[C@@]3(C)C[C@H](O)[C@@]12F (stereo partly drawn) [Compound 52, (2S,6aS,6bR,7S,8aS,8bS,11aR,12aS,12bS)-2,6b-Difluoro-7-hydroxy-8b-(2-hydroxyacetyl)-6a,8a-dimethyl-10-(2-(((2-oxotetrahydrofuran-3-yl)thio)methyl)pyrimidin-5-yl)-1,2,6a,6b,7,8,8a,8b,11a, 12,12a,12b-dodecahydro-4H-naphtho[2',1':4,5]indeno[1,2-d][1,3]dioxol-4-one]	6.92

— patent EP4635969A1, “NOVEL GLUCOCORTICOID, METHOD FOR PREPARING SAME, AND USE THEREOF” (Tianjin Pharmaceutical Biotechnology Co., Ltd., priority 2022, dated 2024)
